Where a name gives a salt, the structure may show the parent alone.
Experiments:
[1] = target: T1, Recombinant human IKKβ (residues 1-737) (Homo sapiens, UniProt O14920); assay: IKK2 assay (TR-FRET); type: biochemical; settings: ATP 1 μM final, read-out: pIC50 against IKK2 (converted)
T1 construct: Recombinant human IKKβ (residues 1-737); GST (C); made in house
T1 sequence (O14920 1-737): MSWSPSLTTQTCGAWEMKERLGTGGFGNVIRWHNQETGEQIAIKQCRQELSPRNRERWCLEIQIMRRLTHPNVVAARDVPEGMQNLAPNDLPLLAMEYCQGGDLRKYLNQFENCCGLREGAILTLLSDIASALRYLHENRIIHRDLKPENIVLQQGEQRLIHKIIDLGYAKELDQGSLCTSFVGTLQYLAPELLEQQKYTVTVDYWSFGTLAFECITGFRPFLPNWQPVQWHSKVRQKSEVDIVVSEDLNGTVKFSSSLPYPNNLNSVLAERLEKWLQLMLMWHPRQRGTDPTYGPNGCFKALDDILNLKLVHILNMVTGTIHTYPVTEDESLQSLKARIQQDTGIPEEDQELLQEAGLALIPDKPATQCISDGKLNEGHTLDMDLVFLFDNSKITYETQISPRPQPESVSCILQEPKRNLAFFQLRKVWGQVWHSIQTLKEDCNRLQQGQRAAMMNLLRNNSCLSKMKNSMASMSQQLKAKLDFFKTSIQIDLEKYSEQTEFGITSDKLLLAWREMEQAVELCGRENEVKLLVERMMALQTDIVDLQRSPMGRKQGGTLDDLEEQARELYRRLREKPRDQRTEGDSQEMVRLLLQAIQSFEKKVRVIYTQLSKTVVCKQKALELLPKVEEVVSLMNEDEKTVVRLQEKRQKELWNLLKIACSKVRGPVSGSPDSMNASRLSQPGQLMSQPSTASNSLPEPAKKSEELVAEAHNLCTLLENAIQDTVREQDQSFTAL
Summary of the method: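 Baculovirus-expressed C-terminal GST-tagged IKKβ (0.5-5 nM final) in HEPES pH 7.4, MgCl2, CHAPS, DTT, BSA with 1.7% DMSO; 25 nM GST-IB substrate and 1 μM ATP, 15 min at room temperature. EDTA stop; phospho-Ser32/36 detected by Eu-antibody/APC-anti-GST TR-FRET, 665/620 nm ratio.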

[2] = test system: human monocyte stimulated cytokine production (TNF-α); assay: Monocyte assay (LPS-stimulated TNF-α production); type: cell-based; settings: 24 h, 200 ng/mL LPS, TNF-α by ELISA
Summary of the method: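 Human CD14+ monocytes were purified from blood and plated at 1×10^6 cells/mL in RPMI 1640 with 10% FBS. Compound was added 30 min before stimulation with 200 ng/mL LPS (0.1% DMSO final), followed by 24 hrs at 37 C. Supernatant TNF-α was measured by ELISA, and viability by trypan blue exclusion.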

Row | IC50 [1] [µM] | IC50 [2] [µM] | Structure (SMILES)
1 | ≤ 10 | ≤ 1.5 | CCS(=O)(=O)N1CCC(c2c[nH]c3c(C(N)=O)cc(-c4ccc(CN[C@H](C)CO)cc4)cc23)CC1 [Example 151, 3-[1-(ethylsulfonyl)-4-piperidinyl]-5-[4-({[(1R)-2-hydroxy-1-methylethyl]amino}methyl)phenyl]-1H-indole-7-carboxamide trifluoroacetate]
2 | ≤ 10 | > 1 | CCS(=O)(=O)N1CCC(c2c[nH]c3c(C(N)=O)cc(-c4ccc(CNC(CO)CO)cc4)cc23)CC1 [Example 153, 3-[1-(ethylsulfonyl)-4-piperidinyl]-5-[4-({[2-hydroxy-1-(hydroxymethyl)ethyl]amino}methyl)phenyl]-1H-indole-7-carboxamide trifluoroacetate]
3 | ≤ 10 | ≤ 1.5 | CCCC(C)NCc1cccc(-c2cc(C(N)=O)c3[nH]cc(C4CCN(S(=O)(=O)CC)CC4)c3c2)c1 (stereo not drawn) [Example 154, 3-[1-(ethylsulfonyl)-4-piperidinyl]-5-(3-{[(1-methylbutyl)amino]methyl}phenyl)-1H-indole-7-carboxamide trifluoroacetate]
4 | ≤ 10 | ≤ 1.5 | CC[C@@H](C)NCc1cccc(-c2cc(C(N)=O)c3[nH]cc(C4CCN(S(=O)(=O)CC)CC4)c3c2)c1 [Example 155, 3-[1-(ethylsulfonyl)-4-piperidinyl]-5-[3-({[(1R)-1-methylpropyl]amino}methyl)phenyl]-1H-indole-7-carboxamide trifluoroacetate]
5 | ≤ 10 | ≤ 1.5 | CCS(=O)(=O)N1CCC(c2c[nH]c3c(C(N)=O)cc(-c4cccc(CNCC(C)C)c4)cc23)CC1 [Example 156, 3-[1-(ethylsulfonyl)-4-piperidinyl]-5-(3-{[(2-methylpropyl)amino]methyl}phenyl)-1H-indole-7-carboxamide]
6 | ≤ 10 | ≤ 1.5 | CC[C@H](C)NCc1cccc(-c2cc(C(N)=O)c3[nH]cc(C4CCN(S(=O)(=O)CC)CC4)c3c2)c1 [Example 157, 3-[1-(ethylsulfonyl)-4-piperidinyl]-5-[3-({[(1S)-1-methylpropyl]amino}methyl)phenyl]-1H-indole-7-carboxamide acetate]
7 | ≤ 10 | > 1 | CCS(=O)(=O)N1CCC(c2c[nH]c3c(C(N)=O)cc(-c4ccc(CNC(=O)C5CC5)cc4)cc23)CC1 [Example 158, 5-(4-{[(cyclopropylcarbonyl)amino]methyl}phenyl)-3-[1-(ethylsulfonyl)-4-piperidinyl]-1H-indole-7-carboxamide]
8 | ≤ 10 | > 1 | CCS(=O)(=O)N1CCC(c2c[nH]c3c(C(N)=O)cc(-c4ccc(CNC(=O)C5CCC5)cc4)cc23)CC1 [Example 159, 5-(4-{[(cyclobutylcarbonyl)amino]methyl}phenyl)-3-[1-(ethylsulfonyl)-4-piperidinyl]-1H-indole-7-carboxamide]
9 | ≤ 10 | ≤ 1.5 | CCS(=O)(=O)N1CCC(c2c[nH]c3c(C(N)=O)cc(-c4ccc(CNC(=O)Cc5cccs5)cc4)cc23)CC1 [Example 160, 3-[1-(ethylsulfonyl)-4-piperidinyl]-5-(4-{[(2-thienylacetyl)amino]methyl}phenyl)-1H-indole-7-carboxamide]
10 | ≤ 10 | ≤ 1.5 | CCS(=O)(=O)N1CCC(c2c[nH]c3c(C(N)=O)cc(-c4ccc(CN[C@@H](C)C(C)C)cc4)cc23)CC1 [Example 161, 5-[4-({[(1S)-1,2-dimethylpropyl]amino}methyl)phenyl]-3-[1-(ethylsulfonyl)-4-piperidinyl]-1H-indole-7-carboxamide trifluoroacetate]
11 | ≤ 10 | ≤ 1.5 | CCS(=O)(=O)N1CCC(c2c[nH]c3c(C(N)=O)cc(-c4cccc(CN[C@H](C)C(C)C)c4)cc23)CC1 [Example 162, 5-[3-({[(1R)-1,2-dimethylpropyl]amino}methyl)phenyl]-3-[1-(ethylsulfonyl)-4-piperidinyl]-1H-indole-7-carboxamide trifluoroacetate]
12 | ≤ 10 | ≤ 1.5 | CCS(=O)(=O)N1CCC(c2c[nH]c3c(C(N)=O)cc(-c4cccc(N)n4)cc23)CC1 [Example 163, 5-(6-amino-2-pyridinyl)-3-[1-(ethylsulfonyl)-4-piperidinyl]-1H-indole-7-carboxamide trifluoroacetate]

The next lines start with the compound.

Row | Structure (SMILES) | IC50 [1] [µM] | IC50 [2] [µM]
13 | CCS(=O)(=O)N1CCC(c2c[nH]c3c(C(N)=O)cc(-c4ccc(CNC(=O)c5ccco5)cc4)cc23)CC1 [Example 131, 3-[1-(ethylsulfonyl)-4-piperidinyl]-5-(4-{[(2-furanylcarbonyl)amino]methyl}phenyl)-1H-indole-7-carboxamide] | ≤ 10 | ≤ 1.5
14 | CCS(=O)(=O)N1CCC(c2c[nH]c3c(C(N)=O)cc(-c4ccc(CCNC(=O)C5CCC5)cc4)cc23)CC1 [Example 132, 5-(4-{2-[(cyclobutylcarbonyl)amino]ethyl}phenyl)-3-[1-(ethylsulfonyl)-4-piperidinyl]-1H-indole-7-carboxamide] | ≤ 10 | > 1
15 | CCS(=O)(=O)N1CCC(c2c[nH]c3c(C(N)=O)cc(-c4ccc(CCNC(=O)C5CCCCC5)cc4)cc23)CC1 [Example 133, 5-(4-{2-[(cyclohexylcarbonyl)amino]ethyl}phenyl)-3-[1-(ethylsulfonyl)-4-piperidinyl]-1H-indole-7-carboxamide] | ≤ 10 | > 1
16 | CCS(=O)(=O)N1CCC(c2c[nH]c3c(C(N)=O)cc(-c4cccc(CCNC(=O)C5CCCCC5)c4)cc23)CC1 [Example 134, 5-(3-{2-[(cyclohexylcarbonyl)amino]ethyl}phenyl)-3-[1-(ethylsulfonyl)-4-piperidinyl]-1H-indole-7-carboxamide] | ≤ 10 | > 1
17 | CCN1CCN(c2ccc(-c3cc(C(N)=O)c4[nH]cc(C5CCN(S(=O)(=O)CC)CC5)c4c3)cn2)CC1 [Example 136, 5-[6-(4-ethyl-1-piperazinyl)-3-pyridinyl]-3-[1-(ethylsulfonyl)-4-piperidinyl]-1H-indole-7-carboxamide trifluoroacetate] | ≤ 10 | > 1
18 | CCS(=O)(=O)N1CCC(c2c[nH]c3c(C(N)=O)cc(-c4ccc(CNC)cc4)cc23)CC1 [Example 139, 3-[1-(ethylsulfonyl)-4-piperidinyl]-5-{4-[(methylamino)methyl]phenyl}-1H-indole-7-carboxamide trifluoroacetate] | ≤ 10 | ≤ 1.5
19 | CCS(=O)(=O)N1CCC(c2c[nH]c3c(C(N)=O)cc(-c4ccc(CNC(C)C)cc4)cc23)CC1 [Example 140, 3-[1-(ethylsulfonyl)-4-piperidinyl]-5-(4-{[(1-methylethyl)amino]methyl}phenyl)-1H-indole-7-carboxamide] | ≤ 10 | > 1
20 | CCCNCc1ccc(-c2cc(C(N)=O)c3[nH]cc(C4CCN(S(=O)(=O)CC)CC4)c3c2)cc1 [Example 141, 3-[1-(ethylsulfonyl)-4-piperidinyl]-5-{4-[(propylamino)methyl]phenyl}-1H-indole-7-carboxamide trifluoroacetate] | ≤ 10 | ≤ 1.5
21 | CCS(=O)(=O)N1CCC(c2c[nH]c3c(C(N)=O)cc(-c4ccc(CNC5CCCC5)cc4)cc23)CC1 [Example 143, 5-{4-[(cyclopentylamino)methyl]phenyl}-3-[1-(ethylsulfonyl)-4-piperidinyl]-1H-indole-7-carboxamide trifluoroacetate] | ≤ 10 | > 1
22 | CCS(=O)(=O)N1CCC(c2c[nH]c3c(C(N)=O)cc(-c4ccc(CNC5CCC5)cc4)cc23)CC1 [Example 144, 5-{4-[(cyclobutylamino)methyl]phenyl}-3-[1-(ethylsulfonyl)-4-piperidinyl]-1H-indole-7-carboxamide] | ≤ 10 | ≤ 1.5
23 | CCS(=O)(=O)N1CCC(c2c[nH]c3c(C(N)=O)cc(-c4ccc(CN(C)C)cc4)cc23)CC1 [Example 146, 5-{4-[(dimethylamino)methyl]phenyl}-3-[1-(ethylsulfonyl)-4-piperidinyl]-1H-indole-7-carboxamide] | ≤ 10 | > 1
24 | CCN(CC)Cc1ccc(-c2cc(C(N)=O)c3[nH]cc(C4CCN(S(=O)(=O)CC)CC4)c3c2)cc1 [Example 147, 5-{4-[(diethylamino)methyl]phenyl}-3-[1-(ethylsulfonyl)-4-piperidinyl]-1H-indole-7-carboxamide] | ≤ 10 | > 1
